Patent US9278947B2, “Serotonin reuptake inhibitors as drugs having peripheral-system-restricted activity” (priority 2006, dated 2016)
Read-outs that look alike come from different tables or passages of the source. Marks after values point to notes of the source that are not given here.

Legend:
[1] = system: mice; assay: Collagen-epinephrine induced acute pulmonary thromboembolism in mice; type: in vivo; conditions: for death or paralysis after collagen-epinephrine injection versus control group: chronic treatment: aspirin 70 mg/kg, citalopram 10 mg/kg, NMC 10 mg/kg; for Number of mice who died: died or paralyzed after collagen-epinephrine into tail vein; for % death: died or paralyzed; for Mean % death ± S.E.M: mean of 3 experiments
Method: An experimental model of acute pulmonary thromboembolism was induced in mice by injecting a mixture of collagen (0.5 mg/kg) and epinephrine (0.5 mg/kg). […] The injection was followed by a massive activation of circulating platelets and the widespread formation of platelet thrombi in the microcirculation of the lungs leading to disseminated pulmonary microembolism and paralysis of the animal.

[2] = system: mice; assay: Tail bleeding time in chronically treated mice; type: in vivo; conditions: for Mean (n = 4) of mean bleeding time: mean over experiments (different doses)
Method: The anti-thrombotic effects of a drug can be evaluated in mice through a bleeding time experiment. Mice were treated by the tested drugs for two weeks, then anesthetized and placed on a warming pad before a segment of their tail was amputated. The tail was immersed in 0.9% isotonic saline at 37° C., and the time required for the stream of blood to stop was defined as the bleeding time. Different cuts and drug doses were tested. Control mice were administered either DDW (p.o) or saline (i.p). In some experiments (Nos. 5 and 6), half of the mice were administered DDW and half saline.

[3] = reported in reference [1]; cited from earlier work
[4] = system: ICR mice
[5] = system: [^3H]noradrenaline uptake into rat brain synaptosomes; assay: [^3H]noradrenaline uptake by rat brain synaptosomes; type: biochemical; conditions: for inhibition of [^3H]noradrenaline uptake: at 8.5 nM
Method: (§1) [^3H]dopamine and [^3H]noradrenaline uptake assays were carried out in synaptosomes from rat brain cortex. After a 10 minutes pre-incubation period at 37° C., [^3H]dopamine or [^3H]noradrenaline were added to the tubes containing synaptosomes and tested drugs. The reactions were stopped after four minutes by rapid cooling on ice. Specific uptake was defined as the difference between total uptake at 37° C. (triplicate samples) and the uptake measured at 0° C. (duplicate samples). Three separate experiments were performed.

[6] = system: [^3H]dopamine uptake into rat brain synaptosomes; assay: [^3H]dopamine uptake by rat brain synaptosomes; type: biochemical; conditions: for inhibition of [^3H]dopamine uptake: at 45 nM
Method: as §1

[7] = Experiment No. 1, 70 mg/kg for two weeks
[8] = Experiment No. 2, 70 mg/kg for two weeks
[9] = Experiment No. 3, 70 mg/kg for two weeks
[10] = Experiment No. 1, 10 mg/kg for two weeks
[11] = Experiment No. 2, 10 mg/kg for two weeks
[12] = Experiment No. 3, 10 mg/kg for two weeks
[13] = 10 mg/kg for two weeks (control 72 ± 2)
[14] = 3 mm tail amputation, Experiment No. 3, CJ57/black, 2 mg/kg p.o., two weeks
[15] = 3 mm tail amputation, Experiment No. 5, ICR, 10 mg/kg i.p., two weeks

| SMILES | death or paralysis after collagen-epinephrine injection versus control group [1] | Mean (n = 4) of mean bleeding time ([2]; 3 mm tail amputation) [s] | reduction of MI risk [3] [%] | Number of mice who died [1, 10] | Number of mice who died [1, 11] | Number of mice who died [1, 12] | % death [1, 10] [%] | % death [1, 11] [%] | % death [1, 12] [%] | Mean % death ± S.E.M [1, 13] | inhibition of [^3H]noradrenaline uptake [5] | inhibition of [^3H]dopamine uptake [6] | Mean bleeding time [2, 14] [s] | Mean bleeding time [2, 15] [s] | other results |
| --- | --- | --- | --- | --- | --- | --- | --- | --- | --- | --- | --- | --- | --- | --- | --- |
| CC(=O)Oc1ccccc1C(=O)O [Aspirin] | significantly less prone to die or to be paralyzed | 288 | 20 | – | – | – | – | – | – | – | – | – | – | – | Number of mice who died [1, 7]: 5/10; Number of mice who died [1, 8]: 5/12; Number of mice who died [1, 9]: 3/11; % death [1, 7]: 50%; % death [1, 8]: 42%; % death [1, 9]: 27%; Mean % death ± S.E.M ([1]; 70 mg/kg for two weeks (control 72 ± 2)): 40^a ± 7^ %; Mean bleeding time ([2]; 3 mm tail amputation, Experiment No. 2, CJ57/black, 40 mg/kg p.o., two weeks): 389 s; Mean bleeding time ([2]; 3 mm tail amputation, Experiment No. 3, CJ57/black, 40 mg/kg p.o., two weeks): 230 s; Mean bleeding time ([2]; 3 mm tail amputation, Experiment No. 4, CJ57/black, 70 mg/kg p.o., two weeks): 394 s; Mean bleeding time ([2]; 3 mm tail amputation, Experiment No. 5, ICR, 70 mg/kg p.o., two weeks): 145 s; Mean bleeding time ([2]; 4 mm tail amputation, Experiment No. 6, ICR, 40 mg/kg p.o.): 221 s; Mean bleeding time ([2]; amputation where tail diameter is 2 mm, Experiment No. 1, CJ57/black, 40 mg/kg p.o.): 233 s |
| C[N+](C)(C)CCCC1(c2ccc(F)cc2)OCc2cc(C#N)ccc21 (stereo not shown) [NMC, N-methyl-citalopram] | significant decrease in death or paralysis | 191 | – | 6/8 | 4/13 | 6/14 | 75 | 31 | 43 | 50^b ± 10% | less than 20% | less than 10% | 150 | 124 | dose at which not lethal to mice ([4]; i.p., mice): less than 50 mg/kg; Mice behavior following injections, day 1 ([4]; mouse, in vivo, ip): normal; Mice behavior following injections, day 2 ([4]; mouse, in vivo, ip): normal; Mice behavior following injections, day 3 ([4]; mouse, in vivo, ip): normal; doses that can be toxic ([4]; mouse, in vivo, ip): above 50 mg/kg |
| CN(C)CCCC1(c2ccc(F)cc2)OCc2cc(C#N)ccc21 (stereo not shown) [Citalopram, 1-(3-Dimethylamino-propyl)-1-(4-fluoro-phenyl)-1,3-dihydro-isobenzofuran-5-carbonitrile] | did not cause a significant improvement | 171 | – | 7/9 | 8/13 | 7/10 | 78 | 61 | 70 | 70 ± 5% | did not have any effect | did not inhibit | 179 | 66 | Mice behavior following injections, day 1 ([4]; 30 mg/day i.p., ICR mice, observed 1 hour): normal; Mice behavior following injections, day 3 ([4]; 100 mg/day i.p., ICR mice, observed 1 hour): looks weak |
| OC1(c2ccc(Cl)cc2)c2ccccc2C2=NCCN21 (stereo not shown) [mazindol] | – | – | – | – | – | – | – | – | – | – | – | – | – | – | IC50 ([5]; rat brain synaptosomes, read-out: concentration inhibiting [^3H]noradrenaline uptake by 50%): 8.5 nM; IC50 ([6]; rat brain synaptosomes, read-out: concentration inhibiting [^3H]dopamine uptake by 50%): 45 nM |
| COC(=O)[C@H](c1ccccc1Cl)N1CCc2sccc2C1 [clopidogrel] | – | – | 10 | – | – | – | – | – | – | – | – | – | – | – | – |
